Test [1] concerns M. tuberculosis. The test is described as follows: microbe, parasite or virus in culture. It counts as cell-based.
The subject of test [2] is nonreplicating M. tuberculosis. Put plainly: Low-Oxygen-Recovery Assay (LORA) MIC. It counts as cell-based. Conditions: Mycobacterium tuberculosis, read-out: LORA MIC. An excerpt:
MIC Determination in the Low-Oxygen-Recovery Assay (LORA) for Nonreplicating M. tuberculosis
Screening for new antimicrobial agents is routinely conducted only against actively replicating bacteria. However, it is now widely accepted that a physiological state of non-replicating persistence (NRP) is responsible for antimicrobial tolerance in many bacterial infections. In tuberculosis, the key to shortening the 6-month regimen lies in targeting this NRP subpopulation. […] Cho S H, Want S, Wan B, Hwang C H, Pauli G F, Franzblau S G; “Low-Oxygen-Recovery Assay for High-Throughput Screening of Compounds against Nonreplicating Mycobacterium tuberculosis” Antimicrob Agents Chemother. 2007 April; 51(4): 1380-1385 doi: 10.1128/AAC.00055-06.

The subject of test [3] is intracellular M. tuberculosis in THP-1 cells. Put plainly: microbe, parasite or virus in culture. It counts as cell-based. Conditions: Mycobacterium tuberculosis, H37RA; for IC50: THP-1, 120 h, read-out: Mtb H37Ra in THP1 Cells (IC50); for MIC: read-out: MIC, Macrophage Cells.
The subject of test [4] is intracellular M. tuberculosis in J774 cells. Put plainly: Efficacy against intracellular M. tuberculosis (luciferase) in J774 cells. It counts as cell-based.
In test [5] the test system is M. kansasii. Put plainly: MIC in bacterial broth culture (7H9 with ADC, visual or resazurin). Conditions: Mycobacterium kansasii, Table 31, duplicate values. It is filed as cell-based.
For test [6], the system named is M. tuberculosis Erdman. The test is described as follows: MBC assay, log killing reduction in CFU over a one month period of incubation (Table 35). It is filed as cell-based. Conditions: Compound 23A at 4×MIC.
Test [7] deals with Non-Replicating (NRP) M. tuberculosis H37Ra. The test is described as follows: Non-replicating (NRP) M. tuberculosis H37Ra (luciferase) culture assay. It counts as cell-based. Conditions: Mycobacterium tuberculosis, 336 h, read on day 14.
In test [8] the test system is M. tuberculosis H37Rv. Put plainly: Monotherapy against established TB in mice (dose-ranging activity study). The settings on record: BALB/c mice, M. tuberculosis H37Rv, 150 mg/kg daily 5 days per week. It is filed as in vivo.
The subject of test [9] is M. tuberculosis H37Rv. The settings on record: cited from earlier work.
The mark [10] stands for this setting: Mycobacterium tuberculosis, H37RA, read-out: MIC, Broth.

Converted amounts (≈) assume the structure as drawn. Like-named read-outs stand apart in the source and are kept apart here. A value given as a limit tells only on which side of the number the result lay.

What is called IC50 is the concentration needed to halve the response being measured. `COc1c(N2CCNC(C)C2)c(F)cc2c(=O)c(C(=O)O)cn(C3CC3)c12` (stereo not drawn) [Gatifloxacin, 1-cyclopropyl-6-fluoro-8-methoxy-7-(3-methylpiperazin-1-yl)-4-oxo-quinoline-3-carboxylic acid] returned an Erdman (MIC) in [1] of 0.25 µg/mL. Moreover, the MIC in test [2] came to 3.6 µg/mL (≈ 9.59 µM). For the same compound, the IC50 in [3] was found to be 0.2 µg/mL (≈ 0.533 µM); in test [4] (Mycobacterium tuberculosis, J774, 120 h, read-out: Mtb CDC1551 in J774 Cells (IC50)) it was 0.94 µg/mL (≈ 2.5 µM).
With `COc1c(N2C[C@@H]3CCCN[C@@H]3C2)c(F)cc2c(=O)c(C(=O)O)cn(C3CC3)c12` [Moxifloxacin, 1-cyclopropyl-7-[(1S,6S)-2,8-diazabicyclo [4.3.0]non-8-yl]-6-fluoro-8-methoxy-4-oxo-quinoline-3-carboxylic acid], the MIC amounted to 0.03 µg/mL (≈ 0.0747 µM) in [1] (Mycobacterium tuberculosis, ERDMAN, Table 31, Mtb Erdman, duplicate values, read-out: MIC); 0.03 µg/mL (≈ 0.0747 µM) in [1] (Mycobacterium tuberculosis, ERDMAN, Table 32, M. tuberculosis Erdman, […], duplicate values, read-out: MIC); 0.03 µg/mL (≈ 0.0747 µM) in [1] (Mycobacterium tuberculosis, ERDMAN, Table 33, M. tuberculosis strain Erdman, read-out: MIC); 0.03 µg/mL (≈ 0.0747 µM) in [1] (Mycobacterium tuberculosis, GN9, Table 31, Mtb GN9, duplicate values, read-out: MIC); 0.03 µg/mL (≈ 0.0747 µM) in [1] (Mycobacterium tuberculosis, GN9, Table 33, M. tuberculosis strain GN9, read-out: MIC); 0.12 µg/mL (≈ 0.299 µM) in test [1] (setting [10]). Moreover, the MIC in test [1] (Mycobacterium tuberculosis, H37RV, Table 31, Mtb H37Rv, duplicate values, read-out: MIC) was determined as 0.03 µg/mL (≈ 0.0747 µM); in [1] (Mycobacterium tuberculosis, H37RV, Table 33, M. tuberculosis strain H37Rv, read-out: MIC) it was 0.06 µg/mL (≈ 0.149 µM); in test [1] (Mycobacterium tuberculosis, Table 31, Mtb CDC1551, duplicate values, read-out: MIC) it was 0.015 µg/mL (≈ 0.0374 µM); in test [1] (Mycobacterium tuberculosis, Table 31, Mtb HN878 (Beijing-Type), duplicate values, read-out: MIC), 0.03 µg/mL (≈ 0.0747 µM); in test [1] (Mycobacterium tuberculosis, Table 32, […], duplicate values, read-out: MIC) it was 8 µg/mL (≈ 19.9 µM); in [1] (Mycobacterium tuberculosis, Table 33, M. tuberculosis strain 210, read-out: MIC), 0.015 µg/mL (≈ 0.0374 µM). Further, the MIC in test [1] (Mycobacterium tuberculosis, Table 33, M. tuberculosis strain AH13, read-out: MIC) turned out to be 0.5 µg/mL (≈ 1.25 µM); in test [1] (Mycobacterium tuberculosis, Table 33, M. tuberculosis strain AH517, read-out: MIC), 0.03 µg/mL (≈ 0.0747 µM); in test [1] (Mycobacterium tuberculosis, Table 33, M. tuberculosis strain BW9, read-out: MIC), 0.008 µg/mL (≈ 0.0199 µM); in test [1] (Mycobacterium tuberculosis, Table 33, M. tuberculosis strain C913, read-out: MIC) it was 0.03 µg/mL (≈ 0.0747 µM); in test [1] (Mycobacterium tuberculosis, Table 33, M. tuberculosis strain CDC1551, read-out: MIC), 0.03 µg/mL (≈ 0.0747 µM); in test [1] (Mycobacterium tuberculosis, Table 33, M. tuberculosis strain H10460, read-out: MIC) it was 0.25 µg/mL (≈ 0.623 µM). Also, the MIC was 0.03 µg/mL (≈ 0.0747 µM) in [1] (Mycobacterium tuberculosis, Table 33, M. tuberculosis strain H13571, read-out: MIC); 0.015 µg/mL (≈ 0.0374 µM) in [1] (Mycobacterium tuberculosis, Table 33, M. tuberculosis strain HH915336, read-out: MIC); 0.015 µg/mL (≈ 0.0374 µM) in test [1] (Mycobacterium tuberculosis, Table 33, M. tuberculosis strain LL, read-out: MIC); 0.015 µg/mL (≈ 0.0374 µM) in test [1] (Mycobacterium tuberculosis, Table 33, M. tuberculosis strain MC19062, read-out: MIC); 0.06 µg/mL (≈ 0.149 µM) in test [1] (Mycobacterium tuberculosis, Table 33, M. tuberculosis strain Rv ATCC, read-out: MIC); 0.03 µg/mL (≈ 0.0747 µM) in [1] (Mycobacterium tuberculosis, Table 33, M. tuberculosis strain W10, read-out: MIC). Also, the MIC in test [1] (Mycobacterium tuberculosis, Table 33, M. tuberculosis strain W33, read-out: MIC) is 0.5 µg/mL (≈ 1.25 µM); in [1] (Mycobacterium tuberculosis, Table 33, M. tuberculosis strain Wg565, read-out: MIC), 1 µg/mL (≈ 2.49 µM); in [1] (Table 31, Mtb GN9, duplicate values), 0.015 µg/mL (≈ 0.0374 µM); in test [1] (Table 31, Mtb HN878 (Beijing-Type), duplicate values) it was 0.015 µg/mL (≈ 0.0374 µM); in [1] (Table 32, M. tuberculosis Erdman, […], duplicate values) it was 0.015 µg/mL (≈ 0.0374 µM); in [1] (Table 32, […], duplicate values), 4 µg/mL (≈ 9.96 µM). Besides, the MIC in test [5] (M. kansasii 303) was 0.03 µg/mL (≈ 0.0747 µM); in test [5] (M. kansasii 316) it was 0.03 µg/mL (≈ 0.0747 µM); in test [5] (M. kansasii 379), 0.03 µg/mL (≈ 0.0747 µM); in [2], > 40 µg/mL; in test [3], 0.33 µg/mL (≈ 0.822 µM). In [1] (Table 36, Mtb Erdman, unit inferred), this compound had an Erdman (MIC) of 0.03 µg/mL. For the same compound, the “Log Reduction (cfu)” value in test [6] (day 0 of incubation) is on record as 0 Log; in test [6] (day 1 of incubation), 0.4 Log; in [6] (day 2 of incubation), 1.6 Log; in test [6] (day 3 of incubation) it was 2.8 Log; in test [6] (day 7 of incubation), 2.2 Log; in test [6] (day 14 of incubation), 1.4 Log. The results for the “Log Reduction (cfu)” value in [6] (day 21 of incubation) and in test [6] (day 28 of incubation) were 0.0 Log and 0.2 Log, respectively. Further, the IC50 in test [3] stood at 0.33 µg/mL (≈ 0.822 µM); in [4] (Mycobacterium tuberculosis, J774, 120 h; read-out: Mtb CDC1551 in J774 Cells (IC50)), 0.21 µg/mL (≈ 0.523 µM); in test [7] it was 6 µg/mL (≈ 14.9 µM).
For `NC(=O)c1cnccn1` [Pyrazinamide, pyrazine-2-carboxamide], the “Log cfu (lung)” value in test [8] (4 weeks of treatment) came out at 4.22. Moreover, the “Log Reduction” value in test [8] (4 weeks, vs untreated control) turned out to be 1.78. The MIC in test [1] (setting [10]) was > 12.3 µg/mL; in test [3] it was > 2.5 µg/mL; in test [9] (M. tuberculosis H37Rv, normal pH), 250 µg/mL (≈ 2030 µM); in test [9] (pH 6.0), 50 µg/mL (≈ 406 µM).

The record behind these values is patent publication US9937192B2, “Combination therapy to treat mycobacterium diseases” (priority 2012, dated 2018).
